PubChem BioAssay (NCI)
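Five concentrations, 48 hours, 96-well plates. GI50: concentration for 50% inhibition of growth. TGI is the concentration that stops growth completely.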

Key:
Experiment in all cases: inhibition of tumour cell growth, NCI panel, 48 h
[1] = tested on: HCC-2998 colon
[2] = tested on: HCT-15 colon
[3] = tested on: HOP-92 NSCLC
[4] = tested on: K-562 leukemia
[5] = tested on: KM12 colon
[6] = tested on: MDA-MB-231 breast
[7] = tested on: MDA-MB-435
[8] = tested on: OVCAR-4 ovarian
[9] = tested on: TK-10 renal
[10] = tested on: CCRF-CEM leukemia

Structure (SMILES) | TGI [1] | TGI [2] | TGI [3] | TGI [4] | TGI [5] | TGI [6] | TGI [7] | TGI [8] | TGI [9] | TGI [10] | GI50 [10] | GI50 [2] | GI50 [3] | GI50 [7] | GI50 [9]
CC(=O)NC1C(OCc2ccccc2)OC(CO)C(O)C1OC(C)C(=O)NC(C(=O)NC(CCC(=O)NCCCCNc1c2ccccc2nc2cccc([N+](=O)[O-])c12)C(N)=O)C(C)C (stereo not given) | 3.47 µM | 40.2 µM | 4.52 µM | > 100 µM | 7.68 µM | 25.5 µM | 2.84 µM | 3.97 µM | 32.4 µM | – | – | – | – | – | –
CN=C(/N=c1\ssc(=NC)n1C)N(C)C | > 100 µM | – | > 100 µM | > 100 µM | > 100 µM | – | – | > 100 µM | > 100 µM | – | – | – | – | – | –
O=C1c2c(O)cccc2-c2nn(CCNCCO)c3ccc(NCCNCCO)c1c23 | 1 µM | 70.5 µM | 0.609 µM | – | 7.73 µM | 2.51 µM | 1.87 µM | 2.97 µM | 7.08 µM | 0.0631 µM | – | – | – | – | –
C=C(C)CC1(O[Si](C)(C)C)C(=O)C(OCC)=C1OCC (stereo not given) | – | > 100 µM | > 100 µM | – | > 100 µM | > 100 µM | > 100 µM | > 100 µM | > 100 µM | > 100 µM | – | – | – | – | –
CC(C)(C)CC(C)(C)c1cc(O)c(O)c(CN2CCCCC2)c1 | 22.4 µM | 15.9 µM | 35 µM | 19.3 µM | 40.4 µM | 32.6 µM | 37.1 µM | 42 µM | 29.6 µM | – | – | – | – | – | –
CN1CC2=C(NC(=S)NC2c2ccccc2)/C(=C/c2ccccc2)C1 (stereo not given) | > 100 µM | > 100 µM | – | > 100 µM | 68 µM | > 10 µM | > 100 µM | – | > 100 µM | > 100 µM | – | – | – | – | –
CN1C(=O)C(O)C[C@@H]1c1ccccc1 (stereo not given in full) | > 100 µM | > 100 µM | > 100 µM | – | > 100 µM | > 100 µM | > 100 µM | > 100 µM | > 100 µM | > 100 µM | – | – | – | – | –
CCOP(=O)(O)CN1CCNCCN(CP(=O)(O)OCC)CCNCC1 | – | > 100 µM | > 100 µM | > 100 µM | > 100 µM | > 100 µM | > 100 µM | > 100 µM | > 100 µM | > 100 µM | – | – | – | – | –
COc1cc(C2C(Cl)C(=O)N2c2c(C)n(C)n(-c3ccccc3)c2=O)ccc1O (stereo not given) | – | – | 74 µM | > 100 µM | 44.6 µM | 49.1 µM | 31.8 µM | 37.6 µM | 63.5 µM | 79.7 µM | – | – | – | – | –
COC[C@@H](N=Cc1ccc([N+](=O)[O-])cc1)C(C)C | – | > 100 µM | – | > 100 µM | > 100 µM | > 100 µM | > 100 µM | > 100 µM | > 100 µM | > 100 µM | – | – | – | – | –
Cn1c(=O)oc2nc(-c3ccccc3)cc(C(F)(F)F)c21 | > 100 µM | > 100 µM | 81 µM | – | > 100 µM | > 100 µM | > 100 µM | > 100 µM | > 100 µM | – | – | – | – | – | –
COc1ccc(C(=O)CC(c2ccccc2)[C@H]2C(c3ccc(OC)cc3)=Nc3c(nc(SC)n(C)c3=O)NC2c2ccccc2)cc1 (stereo not given in full) | > 100 µM | > 100 µM | > 100 µM | > 100 µM | > 100 µM | > 100 µM | > 100 µM | – | > 100 µM | > 100 µM | – | – | – | – | –
COc1cccc(N=N/C(=N\NC(=O)c2ccc(C)cc2)c2ccc(N(CCC#N)CCC#N)cc2C)c1 | > 100 µM | > 100 µM | > 100 µM | > 100 µM | > 100 µM | > 100 µM | > 100 µM | > 100 µM | > 100 µM | – | – | – | – | – | –
CCN(CC)C(=S)SS(=O)(=O)c1cccc(N)c1 | > 100 µM | > 100 µM | > 100 µM | > 100 µM | > 100 µM | > 100 µM | > 100 µM | > 100 µM | > 100 µM | – | – | – | – | – | –
COc1ccc(-c2oc3cc(O)cc(O)c3c(=O)c2OC)cc1 | 62.9 µM | > 100 µM | 16.1 µM | > 100 µM | – | > 100 µM | > 100 µM | > 100 µM | > 100 µM | > 100 µM | – | – | – | – | –
CCN=C1C=CC(=C(c2ccc(N(CC)CC)cc2)c2ccc(N(CC)CC)cc2)c2ccccc21 | – | 1.21 µM | 0.0922 µM | – | – | – | 0.428 µM | – | 1.13 µM | 1.52 µM | 0.0471 µM | 0.299 µM | 0.0175 µM | 0.0733 µM | 0.0422 µM
Cc1ccc(S(=O)CC(CF)OCn2cc(C)c(=O)[nH]c2=O)cc1 (stereo not given) | > 100 µM | > 100 µM | > 100 µM | – | > 100 µM | > 100 µM | > 100 µM | > 100 µM | > 100 µM | – | – | – | – | – | –
CCOC(=O)Nn1c(CC#N)nnc1Cc1ccccc1 | > 100 µM | > 100 µM | > 100 µM | > 100 µM | > 100 µM | > 100 µM | > 100 µM | – | > 100 µM | – | – | – | – | – | –
COc1cccc(C=O)c1[O-].[O]=[U](=[O])([OH2+])[OH2+] | > 100 µM | > 100 µM | > 100 µM | > 100 µM | > 100 µM | – | – | > 100 µM | 97.4 µM | > 100 µM | – | – | – | – | –
CCOC(=O)c1cc(C)nc2c1c(=O)n(-c1ccccc1)c(=O)n2CCCCN1CCN(c2ccccc2)CC1 | > 100 µM | > 100 µM | > 100 µM | > 100 µM | > 100 µM | > 100 µM | > 100 µM | > 100 µM | > 100 µM | – | – | – | – | – | –
C=CCC1C(O[Si](C)(C)C(C)(C)C)C(CO[Si](C)(C)C(C)(C)C)OC1n1ccc(=O)[nH]c1=O (stereo not given) | 3.27 µM | 2.64 µM | 2.5 µM | – | > 100 µM | 4.52 µM | 4.33 µM | – | – | 2.86 µM | – | – | – | – | –
COc1cc(C2C3=C(COC3=O)Oc3cc4c(cc32)OCO4)cc(OC)c1O (stereo not given) | 0.121 µM | > 100 µM | 5.55 µM | 0.402 µM | > 100 µM | > 24.9 µM | – | 47.8 µM | 63.8 µM | > 66.9 µM | – | – | – | – | –
O=C(CCN1CCN2c3ccccc3CCC2C1)c1ccc(F)cc1 (stereo not given) | – | 55.1 µM | 82.1 µM | > 100 µM | > 100 µM | > 100 µM | 47.4 µM | 37.8 µM | 66 µM | > 100 µM | – | – | – | – | –
